Tested on: 435261-313-R-J1-PDC tumor spheroid viability
Test: Anticancer human tumor 435261-313-R-J1-PDC patient-derived colon adenocarcinoma cell line growth inhibition [PI3K]
Conditions: spheroids with HUVEC and MSC; for IC50: curve of first compound; for viability, T/C: stronger effect = lower value
Outline: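 Stroma-containing spheroids: tumor line, pooled-donor HUVEC, hMSC. Treatments: targeted agents with PI3K inhibitors. Dosing: clinically relevant, half-log spacing, 10 microM ceiling without known Cmax. Read-out: cell viability.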

[1] = second compound 0.0316 µM, first compound 0.0316 µM
[2] = second compound 0.0316 µM, first compound 0.1 µM
[3] = second compound 0.0316 µM, first compound 0.316 µM
[4] = second compound 0.0316 µM, first compound 1 µM
[5] = second compound 0.0316 µM, first compound 3.16 µM
[6] = second compound 0.0316 µM, first compound 10 µM
[7] = second compound 0.1 µM, first compound 0.0316 µM
[8] = second compound 0.1 µM, first compound 0.1 µM
[9] = second compound 0.1 µM, first compound 0.316 µM
[10] = second compound 0.1 µM, first compound 1 µM
[11] = second compound 0.1 µM, first compound 3.16 µM
[12] = second compound 0.1 µM, first compound 10 µM
[13] = second compound 0.316 µM, first compound 0.0316 µM
[14] = second compound 0.316 µM, first compound 0.1 µM
[15] = second compound 0.316 µM, first compound 0.316 µM
[16] = second compound 0.316 µM, first compound 1 µM
[17] = second compound 0.316 µM, first compound 3.16 µM
[18] = second compound 0.316 µM, first compound 10 µM
[19] = second compound 1 µM, first compound 0.0316 µM
[20] = second compound 1 µM, first compound 0.1 µM
[21] = second compound 1 µM, first compound 0.316 µM
[22] = second compound 1 µM, first compound 1 µM
[23] = second compound 1 µM, first compound 3.16 µM
[24] = second compound 1 µM, first compound 10 µM
[25] = second compound 3.16 µM, first compound 0.0316 µM
[26] = second compound 3.16 µM, first compound 0.1 µM
[27] = second compound 3.16 µM, first compound 0.316 µM
[28] = second compound 3.16 µM, first compound 1 µM
[29] = second compound 3.16 µM, first compound 3.16 µM
[30] = second compound 3.16 µM, first compound 10 µM
[31] = second compound 10 µM, first compound 0.0316 µM
[32] = second compound 10 µM, first compound 0.1 µM
[33] = second compound 10 µM, first compound 0.316 µM
[34] = second compound 10 µM, first compound 1 µM
[35] = second compound 10 µM, first compound 3.16 µM
[36] = second compound 10 µM, first compound 10 µM
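Note: spheroids exposed to compounds for 7 days.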

## C#Cc1c(F)ccc2cc(O)cc(-c3ncc4c(N5CC6CCC(C5)N6)nc(OCC56CCCN5CC(F)C6)nc4c3F)c12 (stereo unspecified) + CC(Nc1ncnc2nc[nH]c12)c1cc2cccc(Cl)c2c(=O)n1-c1ccccc1
Second compound 0.0316 µM
  IC50: 6.85 µM
Second compound 0.1 µM
  IC50: > 10 µM
Second compound 0.316 µM
  IC50: 7.21 µM
Second compound 1 µM
  IC50: 5.49 µM
Second compound 3.16 µM
  IC50: 4.51 µM
Second compound 10 µM
  IC50: 0.319 µM
[1]
  viability, T/C: 78.7%
[2]
  viability, T/C: 100%
[3]
  viability, T/C: 98.3%
[4]
  viability, T/C: 89.3%
[5]
  viability, T/C: 81.9%
[6]
  viability, T/C: 34.5%
[7]
  viability, T/C: 97.8%
[8]
  viability, T/C: 109%
[9]
  viability, T/C: 72.2%
[10]
  viability, T/C: 82%
[11]
  viability, T/C: 68.2%
[12]
  viability, T/C: 56%
[13]
  viability, T/C: 89%
[14]
  viability, T/C: 85.3%
[15]
  viability, T/C: 79.8%
[16]
  viability, T/C: 105%
[17]
  viability, T/C: 103%
[18]
  viability, T/C: 33.2%
[19]
  viability, T/C: 94.9%
[20]
  viability, T/C: 70.4%
[21]
  viability, T/C: 82.3%
[22]
  viability, T/C: 103%
[23]
  viability, T/C: 67%
[24]
  viability, T/C: 31.4%
[25]
  viability, T/C: 62%
[26]
  viability, T/C: 66.2%
[27]
  viability, T/C: 43.3%
[28]
  viability, T/C: 90.6%
[29]
  viability, T/C: 50.1%
[30]
  viability, T/C: 32.7%
[31]
  viability, T/C: 56.5%
[32]
  viability, T/C: 46.9%
[33]
  viability, T/C: 52.3%
[34]
  viability, T/C: 34.9%
[35]
  viability, T/C: 18.8%
[36]
  viability, T/C: 13.7%

## C=CC(=O)N1CCN(c2nc(=O)n(-c3c(C)ccnc3C(C)C)c3nc(-c4c(O)cccc4F)c(F)cc23)C(C)C1 (stereo unspecified) + CC(Nc1ncnc2nc[nH]c12)c1cc2cccc(Cl)c2c(=O)n1-c1ccccc1
Second compound 0.0316 µM
  IC50: > 10 µM
Second compound 0.1 µM
  IC50: > 10 µM
Second compound 0.316 µM
  IC50: > 10 µM
Second compound 1 µM
  IC50: > 10 µM
Second compound 3.16 µM
  IC50: > 10 µM
Second compound 10 µM
  IC50: > 10 µM
[1]
  viability, T/C: 67.3%
[2]
  viability, T/C: 84.8%
[3]
  viability, T/C: 103%
[4]
  viability, T/C: 117%
[5]
  viability, T/C: 116%
[6]
  viability, T/C: 103%
[7]
  viability, T/C: 78.4%
[8]
  viability, T/C: 79.9%
[9]
  viability, T/C: 103%
[10]
  viability, T/C: 84.3%
[11]
  viability, T/C: 109%
[12]
  viability, T/C: 103%
[13]
  viability, T/C: 92%
[14]
  viability, T/C: 95%
[15]
  viability, T/C: 85.4%
[16]
  viability, T/C: 94.1%
[17]
  viability, T/C: 122%
[18]
  viability, T/C: 108%
[19]
  viability, T/C: 76.3%
[20]
  viability, T/C: 77%
[21]
  viability, T/C: 102%
[22]
  viability, T/C: 91.9%
[23]
  viability, T/C: 130%
[24]
  viability, T/C: 109%
[25]
  viability, T/C: 53.7%
[26]
  viability, T/C: 68.8%
[27]
  viability, T/C: 89.2%
[28]
  viability, T/C: 106%
[29]
  viability, T/C: 87.9%
[30]
  viability, T/C: 79.5%
[31]
  viability, T/C: 49.3%
[32]
  viability, T/C: 49.6%
[33]
  viability, T/C: 54.6%
[34]
  viability, T/C: 55.1%
[35]
  viability, T/C: 74.9%
[36]
  viability, T/C: 66.4%

## CC(Cn1ccc(-c2ccc(C#N)c(Cl)c2)n1)NC(=O)c1cc(C(C)O)[nH]n1 (stereo unspecified) + CC(Nc1ncnc2nc[nH]c12)c1cc2cccc(Cl)c2c(=O)n1-c1ccccc1
Second compound 0.0316 µM
  IC50: > 10 µM
Second compound 0.1 µM
  IC50: > 10 µM
Second compound 0.316 µM
  IC50: > 10 µM
Second compound 1 µM
  IC50: > 10 µM
Second compound 3.16 µM
  IC50: > 10 µM
Second compound 10 µM
  IC50: > 10 µM
[1]
  viability, T/C: 101%
[2]
  viability, T/C: 96.2%
[3]
  viability, T/C: 107%
[4]
  viability, T/C: 75.8%
[5]
  viability, T/C: 101%
[6]
  viability, T/C: 100%
[7]
  viability, T/C: 105%
[8]
  viability, T/C: 95.9%
[9]
  viability, T/C: 90.9%
[10]
  viability, T/C: 103%
[11]
  viability, T/C: 115%
[12]
  viability, T/C: 76.1%
[13]
  viability, T/C: 82.7%
[14]
  viability, T/C: 90.4%
[15]
  viability, T/C: 90.5%
[16]
  viability, T/C: 80.5%
[17]
  viability, T/C: 103%
[18]
  viability, T/C: 81.6%
[19]
  viability, T/C: 81.1%
[20]
  viability, T/C: 99.1%
[21]
  viability, T/C: 70.9%
[22]
  viability, T/C: 85.9%
[23]
  viability, T/C: 73.5%
[24]
  viability, T/C: 76.6%
[25]
  viability, T/C: 77.8%
[26]
  viability, T/C: 58.4%
[27]
  viability, T/C: 77.2%
[28]
  viability, T/C: 85.5%
[29]
  viability, T/C: 65.1%
[30]
  viability, T/C: 62.1%
[31]
  viability, T/C: 58.5%
[32]
  viability, T/C: 41.7%
[33]
  viability, T/C: 48.5%
[34]
  viability, T/C: 74.7%
[35]
  viability, T/C: 72.4%
[36]
  viability, T/C: 42%

— PubChem BioAssay AID1963976 (Molecular Pharmacology Branch, DTP, NCI, 2024)
